Test results published in patent EP0908457B1, “3-(1,2-benzisothiazol- and isoxazol-5-Y1)-2,4(1H,3H)-pyrimidinedione or thione and 3-(1,2-benzisothiazol- and isoxazol-5-y1)-4(3H)-pyrimidinone or thione herbicidal agents” (BASF AKTIENGESELLSCHAFT, priority 1997, dated 1999).

Key:
Sagittaria pygmaea, L. [1] = assay: Preemergence weed control under flooded paddy conditions, SAGPY (Arrowhead (Pygmaea)); type: in vivo; settings: preemergence, flooded paddy, rated three to four weeks after treatment; also: meaning of each grade not given here
[2] = tested on: Echinochloa oryzoides (Ard.) Fritsch.; assay: Preemergence weed control under flooded paddy conditions, ECHORC (Watergrass (Calif.)); type: in vivo; settings: preemergence, flooded paddy, rated three to four weeks after treatment; also: meaning of each grade not given here
[3] = tested on: Oryza sativa, (L.) Tebonnet; assay: Rice tolerance to post-transplant applications under flooded paddy conditions (Example 187), ORYSAT (Rice, Tebonnet); settings: rated three to four weeks after treatment
[4] = tested on: Cyperus serotinus, Rottb.; assay: Preemergence weed control under flooded paddy conditions, CYPSE (Flatsedge); type: in vivo; settings: preemergence, rated three to four weeks after treatment; also: meaning of each grade not given here
[5] = tested on: Oryza sativa, (L.) Tebonnet; assay: Rice tolerance to post-transplant applications under flooded paddy conditions (Example 188), ORYSAT (Rice, Tebonnet); settings: rated three to four weeks after treatment
[6] = tested on: Echinochloa oryzoides (Ard.) Fritsch.; assay: Postemergence weed control under flooded paddy conditions, ECHORC (Watergrass (Calif.)); type: in vivo; settings: rated three to four weeks after treatment
Sagittaria pygmaea, L. [7] = assay: Postemergence weed control under flooded paddy conditions, SAGPY (Arrowhead (Pygmaea)); type: in vivo; settings: rated three to four weeks after treatment
[8] = tested on: Monochoria vaginalis, Presl.; assay: Postemergence weed control under flooded paddy conditions, MOOVA (Monochoria); type: in vivo; settings: rated three to four weeks after treatment
[9] = tested on: Cyperus serotinus, Rottb.; assay: Postemergence weed control under flooded paddy conditions, CYPSE (Flatsedge); type: in vivo; settings: rated three to four weeks after treatment
Cyperus iria [10] = assay: Preemergence weed control under flooded paddy conditions, CYPIR (Rice Flatsedge); type: in vivo; settings: preemergence, flooded paddy, rated three to four weeks after treatment; also: meaning of each grade not given here
[11] = tested on: Monochoria vaginalis, Presl.; assay: Preemergence weed control under flooded paddy conditions, MOOVA (Monochoria); type: in vivo; settings: preemergence, flooded paddy, rated three to four weeks after treatment; also: meaning of each grade not given here
Cyperus iria [12] = assay: Postemergence weed control under flooded paddy conditions, CYPIR (Rice Flatsedge); type: in vivo; settings: rated three to four weeks after treatment

## COc1cc(C)ccc1-c1nsc2ccc(-n3c(=O)cc(C(F)(F)F)n(C)c3=O)cc12 [Example 7, 3-[3-(2-Methoxy-p-tolyl)-1,2-benzisothiazol-5-yl]-1-methyl-6-(trifluoromethyl)-2,4(1H,3H)-pyrimidinedione]
Sagittaria pygmaea, L. [1]; 0.0313 kg/ha
  herbicidal effect rating, SAGPY: 6.0
Sagittaria pygmaea, L. [1]; 0.0625 kg/ha
  herbicidal effect rating, SAGPY: 8.0
Sagittaria pygmaea, L. [1]; 0.1250 kg/ha
  herbicidal effect rating, SAGPY: 9.0
Sagittaria pygmaea, L. [1]; 0.2500 kg/ha
  herbicidal effect rating, SAGPY: 9.0
Sagittaria pygmaea, L. [1]; 0.5000 kg/ha
  herbicidal effect rating, SAGPY: 9.0
[2]; 0.0313 kg/ha
  herbicidal effect rating, ECHORC: 9.0
[2]; 0.0625 kg/ha
  herbicidal effect rating, ECHORC: 9.0
[2]; 0.1250 kg/ha
  herbicidal effect rating, ECHORC: 9.0
[2]; 0.2500 kg/ha
  herbicidal effect rating, ECHORC: 9.0
[2]; 0.5000 kg/ha
  herbicidal effect rating, ECHORC: 9.0
[3]; 0.0313 kg/ha
  herbicidal effect rating, ORYSAT (rice tolerance): 6.0
[3]; 0.0625 kg/ha
  herbicidal effect rating, ORYSAT (rice tolerance): 8.0
[3]; 0.1250 kg/ha
  herbicidal effect rating, ORYSAT (rice tolerance): 7.0
[3]; 0.2500 kg/ha
  herbicidal effect rating, ORYSAT (rice tolerance): 7.0
[3]; 0.5000 kg/ha
  herbicidal effect rating, ORYSAT (rice tolerance): 9.0
[4]; 0.0313 kg/ha
  herbicidal effect rating, CYPSE: 7.0
[4]; 0.0625 kg/ha
  herbicidal effect rating, CYPSE: 7.0
[4]; 0.1250 kg/ha
  herbicidal effect rating, CYPSE: 8.0
[4]; 0.2500 kg/ha
  herbicidal effect rating, CYPSE: 7.0
[4]; 0.5000 kg/ha
  herbicidal effect rating, CYPSE: 9.0
[5]; Rate 0.0313 kg/ha
  herbicidal effect rating, ORYSAT (rice tolerance): 7.0
[5]; Rate 0.0625 kg/ha
  herbicidal effect rating, ORYSAT (rice tolerance): 7.0
[5]; Rate 0.1250 kg/ha
  herbicidal effect rating, ORYSAT (rice tolerance): 7.0
[5]; Rate 0.2500 kg/ha
  herbicidal effect rating, ORYSAT (rice tolerance): 7.0
[5]; Rate 0.5000 kg/ha
  herbicidal effect rating, ORYSAT (rice tolerance): 8.0
[6]; Rate 0.0313 kg/ha
  herbicidal effect rating, ECHORC: 9.0
[6]; Rate 0.0625 kg/ha
  herbicidal effect rating, ECHORC: 9.0
[6]; Rate 0.1250 kg/ha
  herbicidal effect rating, ECHORC: 9.0
[6]; Rate 0.2500 kg/ha
  herbicidal effect rating, ECHORC: 9.0
[6]; Rate 0.5000 kg/ha
  herbicidal effect rating, ECHORC: 9.0
Sagittaria pygmaea, L. [7]; Rate 0.0313 kg/ha
  herbicidal effect rating, SAGPY: 0.0
Sagittaria pygmaea, L. [7]; Rate 0.0625 kg/ha
  herbicidal effect rating, SAGPY: 2.0
Sagittaria pygmaea, L. [7]; Rate 0.1250 kg/ha
  herbicidal effect rating, SAGPY: 4.0
Sagittaria pygmaea, L. [7]; Rate 0.2500 kg/ha
  herbicidal effect rating, SAGPY: 9.0
Sagittaria pygmaea, L. [7]; Rate 0.5000 kg/ha
  herbicidal effect rating, SAGPY: 9.0
[8]; Rate 0.0313 kg/ha
  herbicidal effect rating, MOOVA: 9.0
[8]; Rate 0.0625 kg/ha
  herbicidal effect rating, MOOVA: 9.0
[8]; Rate 0.1250 kg/ha
  herbicidal effect rating, MOOVA: 9.0
[8]; Rate 0.2500 kg/ha
  herbicidal effect rating, MOOVA: 9.0
[8]; Rate 0.5000 kg/ha
  herbicidal effect rating, MOOVA: 9.0
[9]; Rate 0.0313 kg/ha
  herbicidal effect rating, CYPSE: 2.0
[9]; Rate 0.0625 kg/ha
  herbicidal effect rating, CYPSE: 6.0
[9]; Rate 0.1250 kg/ha
  herbicidal effect rating, CYPSE: 9.0
[9]; Rate 0.2500 kg/ha
  herbicidal effect rating, CYPSE: 9.0
[9]; Rate 0.5000 kg/ha
  herbicidal effect rating, CYPSE: 8.0
Cyperus iria [10]; 0.0313 kg/ha
  herbicidal effect rating, CYPIR: 9.0
Cyperus iria [10]; 0.0625 kg/ha
  herbicidal effect rating, CYPIR: 9.0
Cyperus iria [10]; 0.1250 kg/ha
  herbicidal effect rating, CYPIR: 9.0
Cyperus iria [10]; 0.2500 kg/ha
  herbicidal effect rating, CYPIR: 9.0
Cyperus iria [10]; 0.5000 kg/ha
  herbicidal effect rating, CYPIR: 9.0
[11]; 0.0313 kg/ha
  herbicidal effect rating, MOOVA: 9.0
[11]; 0.0625 kg/ha
  herbicidal effect rating, MOOVA: 9.0
[11]; 0.1250 kg/ha
  herbicidal effect rating, MOOVA: 9.0
[11]; 0.2500 kg/ha
  herbicidal effect rating, MOOVA: 9.0
[11]; 0.5000 kg/ha
  herbicidal effect rating, MOOVA: 9.0
Cyperus iria [12]; Rate 0.0313 kg/ha
  herbicidal effect rating, CYPIR: 9.0
Cyperus iria [12]; Rate 0.0625 kg/ha
  herbicidal effect rating, CYPIR: 9.0
Cyperus iria [12]; Rate 0.1250 kg/ha
  herbicidal effect rating, CYPIR: 9.0
Cyperus iria [12]; Rate 0.2500 kg/ha
  herbicidal effect rating, CYPIR: 9.0
Cyperus iria [12]; Rate 0.5000 kg/ha
  herbicidal effect rating, CYPIR: 9.0

## COc1ccc(C)cc1-c1nsc2ccc(-n3c(=O)cc(C(F)(F)F)n(C)c3=O)cc12 [Example 1, 3-[3-(6-Methoxy-m-tolyl)-1,2-benzisothiazol-5-yl]-1-methyl-6-(trifluoromethyl)-2,4(1H,3H)-pyrimidinedione]
Sagittaria pygmaea, L. [1]; 0.0313 kg/ha
  herbicidal effect rating, SAGPY: 3.3
Sagittaria pygmaea, L. [1]; 0.0625 kg/ha
  herbicidal effect rating, SAGPY: 5.0
Sagittaria pygmaea, L. [1]; 0.1250 kg/ha
  herbicidal effect rating, SAGPY: 6.7
Sagittaria pygmaea, L. [1]; 0.2500 kg/ha
  herbicidal effect rating, SAGPY: 8.3
Sagittaria pygmaea, L. [1]; 0.5000 kg/ha
  herbicidal effect rating, SAGPY: 8.5
[2]; 0.0313 kg/ha
  herbicidal effect rating, ECHORC: 9.0
[2]; 0.0625 kg/ha
  herbicidal effect rating, ECHORC: 9.0
[2]; 0.1250 kg/ha
  herbicidal effect rating, ECHORC: 9.0
[2]; 0.2500 kg/ha
  herbicidal effect rating, ECHORC: 9.0
[2]; 0.5000 kg/ha
  herbicidal effect rating, ECHORC: 9.0
[3]; 0.0313 kg/ha
  herbicidal effect rating, ORYSAT (rice tolerance): 4.7
[3]; 0.0625 kg/ha
  herbicidal effect rating, ORYSAT (rice tolerance): 4.7
[3]; 0.1250 kg/ha
  herbicidal effect rating, ORYSAT (rice tolerance): 5.3
[3]; 0.2500 kg/ha
  herbicidal effect rating, ORYSAT (rice tolerance): 7.7
[3]; 0.5000 kg/ha
  herbicidal effect rating, ORYSAT (rice tolerance): 7.0
[4]; 0.0313 kg/ha
  herbicidal effect rating, CYPSE: 1.3
[4]; 0.0625 kg/ha
  herbicidal effect rating, CYPSE: 3.0
[4]; 0.1250 kg/ha
  herbicidal effect rating, CYPSE: 6.0
[4]; 0.2500 kg/ha
  herbicidal effect rating, CYPSE: 9.0
[4]; 0.5000 kg/ha
  herbicidal effect rating, CYPSE: 8.0
[5]; Rate 0.0313 kg/ha
  herbicidal effect rating, ORYSAT (rice tolerance): 3.0
[5]; Rate 0.0625 kg/ha
  herbicidal effect rating, ORYSAT (rice tolerance): 3.0
[5]; Rate 0.1250 kg/ha
  herbicidal effect rating, ORYSAT (rice tolerance): 4.0
[5]; Rate 0.2500 kg/ha
  herbicidal effect rating, ORYSAT (rice tolerance): 6.0
[5]; Rate 0.5000 kg/ha
  herbicidal effect rating, ORYSAT (rice tolerance): 7.0
[6]; Rate 0.0313 kg/ha
  herbicidal effect rating, ECHORC: 1.0
[6]; Rate 0.0625 kg/ha
  herbicidal effect rating, ECHORC: 2.5
[6]; Rate 0.1250 kg/ha
  herbicidal effect rating, ECHORC: 6.5
[6]; Rate 0.2500 kg/ha
  herbicidal effect rating, ECHORC: 8.0
[6]; Rate 0.5000 kg/ha
  herbicidal effect rating, ECHORC: 9.0
Sagittaria pygmaea, L. [7]; Rate 0.0313 kg/ha
  herbicidal effect rating, SAGPY: 0.0
Sagittaria pygmaea, L. [7]; Rate 0.0625 kg/ha
  herbicidal effect rating, SAGPY: 0.0
Sagittaria pygmaea, L. [7]; Rate 0.1250 kg/ha
  herbicidal effect rating, SAGPY: 0.0
Sagittaria pygmaea, L. [7]; Rate 0.2500 kg/ha
  herbicidal effect rating, SAGPY: 1.0
Sagittaria pygmaea, L. [7]; Rate 0.5000 kg/ha
  herbicidal effect rating, SAGPY: 3.0
[8]; Rate 0.0313 kg/ha
  herbicidal effect rating, MOOVA: 0.0
[8]; Rate 0.0625 kg/ha
  herbicidal effect rating, MOOVA: 1.0
[8]; Rate 0.1250 kg/ha
  herbicidal effect rating, MOOVA: 4.5
[8]; Rate 0.2500 kg/ha
  herbicidal effect rating, MOOVA: 5.5
[8]; Rate 0.5000 kg/ha
  herbicidal effect rating, MOOVA: 6.5
[9]; Rate 0.0313 kg/ha
  herbicidal effect rating, CYPSE: 1.0
[9]; Rate 0.0625 kg/ha
  herbicidal effect rating, CYPSE: 1.0
[9]; Rate 0.1250 kg/ha
  herbicidal effect rating, CYPSE: 3.0
[9]; Rate 0.2500 kg/ha
  herbicidal effect rating, CYPSE: 5.5
[9]; Rate 0.5000 kg/ha
  herbicidal effect rating, CYPSE: 6.5
Cyperus iria [10]; 0.0313 kg/ha
  herbicidal effect rating, CYPIR: 9.0
Cyperus iria [10]; 0.0625 kg/ha
  herbicidal effect rating, CYPIR: 9.0
Cyperus iria [10]; 0.1250 kg/ha
  herbicidal effect rating, CYPIR: 9.0
Cyperus iria [10]; 0.2500 kg/ha
  herbicidal effect rating, CYPIR: 9.0
Cyperus iria [10]; 0.5000 kg/ha
  herbicidal effect rating, CYPIR: 9.0
[11]; 0.0313 kg/ha
  herbicidal effect rating, MOOVA: 9.0
[11]; 0.0625 kg/ha
  herbicidal effect rating, MOOVA: 9.0
[11]; 0.1250 kg/ha
  herbicidal effect rating, MOOVA: 9.0
[11]; 0.2500 kg/ha
  herbicidal effect rating, MOOVA: 9.0
[11]; 0.5000 kg/ha
  herbicidal effect rating, MOOVA: 9.0
Cyperus iria [12]; Rate 0.0313 kg/ha
  herbicidal effect rating, CYPIR: 0.0
Cyperus iria [12]; Rate 0.0625 kg/ha
  herbicidal effect rating, CYPIR: 4.0
Cyperus iria [12]; Rate 0.1250 kg/ha
  herbicidal effect rating, CYPIR: 9.0
Cyperus iria [12]; Rate 0.2500 kg/ha
  herbicidal effect rating, CYPIR: 9.0
Cyperus iria [12]; Rate 0.5000 kg/ha
  herbicidal effect rating, CYPIR: 9.0
